According to patent US20250375450A1, “SMARCA2/4 INHIBITION AS A STRATEGY TO TREAT TUMORS THAT HARBOR ABERRANT BAF ASSEMBLIES” (BOARD OF REGENTS, THE UNIVERSITY OF TEXAS SYSTEM, priority 2022, published 2025):

Assays:
Format in all cases: biochemical
SMARCA2 [1] = target: T1, SMARCA2 (Homo sapiens, UniProt P51531); assay: High-throughput screen (HTS) of 40,000 compounds, ATPase assay; conditions: HTS against human SMARCA2
T1 construct: The SMARCA2-1 gene (amino acids 437-1493) encompassing all domains; made in house; host or cells: expiSF9 insect cells (baculovirus, pFASTBac1)
From the text: The SMARCA2-1 gene (amino acids 437-1493) encompassing all domains (HAS, BRK, ATPase and Bromodomain) required for DNA binding and ATPase activity were cloned into a pFASTBac1 plasmid for insect cell expression (FIG. 2A). In brief, one positive colony was selected and grown to produce enough bacmid DNA. The purified bacmid DNA was used to transfect expiSF9 insect cells using ExpiFectamine protocol as recommended by the manufacturer (Invitrogen). The P0 virus was first generated from the transfected cells, which was subsequently used to generate a P1 virus stock to have enough virus for several rounds of infections and/or large-scale production of SMARCA2-1 enzyme. Next, the experimental conditions were optimized for highest expression of this enzyme and the cultures scaled up to express and purify the enzyme by successive passage of soluble fraction through affinity, ion-exchange, and size exclusion chromatography steps (FIG. 2B). Next, a 29-mer double stranded DNA termed as DNA_EEPD1 (sequence below) was used to measure ATPase activity of SMARCA2 (FIG. 2C and FIG. 2D) and its inhibition by the small molecules described herein (FIG. 4D).
(§1) In brief, the disclosed ATPase assay is based on the inorganic phosphate (Pi) release from the enzymatic reaction, wherein the substrate 2-amino-6-mercapto-7-methylpurine ribose (MESG) is converted by purine phosphorylase (PNP) to ribose 1-phosphate and 2-amino-6-mercapto-7-methylpurine. This conversion changes the spectrophotometric shift of MSEG absorbance from 330 nm to 360 nm (FIG. 1C and FIG. 1D).
Briefly, human SMARCA2 was purified, and a high-throughput screen (HTS) of 40,000 compounds was conducted. […] When cells reached 90% confluency, cells were harvested, washed twice in 1×PBS, counted using trypan blue exclusion method. […] Cells were monitored for 72 hrs. by live cell imaging method (Incucyte S3) taking images every two hours. The confluency was determined and plotted against time (hours) by using Prism software.

SMARCA2 [2] = target: T1, SMARCA2; assay: Dose response experiment, ATPase assay
From the text: The SMARCA2-1 gene (amino acids 437-1493) encompassing all domains (HAS, BRK, ATPase and Bromodomain) required for DNA binding and ATPase activity were cloned into a pFASTBac1 plasmid for insect cell expression (FIG. 2A). In brief, one positive colony was selected and grown to produce enough bacmid DNA. The purified bacmid DNA was used to transfect expiSF9 insect cells using ExpiFectamine protocol as recommended by the manufacturer (Invitrogen). The P0 virus was first generated from the transfected cells, which was subsequently used to generate a P1 virus stock to have enough virus for several rounds of infections and/or large-scale production of SMARCA2-1 enzyme. […]
as §1
Exemplary compounds were evaluated for their ability to inhibit human SMARCA2 in ATPase assays as detailed in Table 2 below. […]

SMARCA2 [3] = target: T1, SMARCA2; assay: Secondary ATPase assay
Procedure: Exemplary compounds were evaluated for their ability to inhibit human SMARCA2 in ATPase assays as detailed in Table 2 below. Dose response curves for compound nos.

T1 sequence (P51531 437-1493): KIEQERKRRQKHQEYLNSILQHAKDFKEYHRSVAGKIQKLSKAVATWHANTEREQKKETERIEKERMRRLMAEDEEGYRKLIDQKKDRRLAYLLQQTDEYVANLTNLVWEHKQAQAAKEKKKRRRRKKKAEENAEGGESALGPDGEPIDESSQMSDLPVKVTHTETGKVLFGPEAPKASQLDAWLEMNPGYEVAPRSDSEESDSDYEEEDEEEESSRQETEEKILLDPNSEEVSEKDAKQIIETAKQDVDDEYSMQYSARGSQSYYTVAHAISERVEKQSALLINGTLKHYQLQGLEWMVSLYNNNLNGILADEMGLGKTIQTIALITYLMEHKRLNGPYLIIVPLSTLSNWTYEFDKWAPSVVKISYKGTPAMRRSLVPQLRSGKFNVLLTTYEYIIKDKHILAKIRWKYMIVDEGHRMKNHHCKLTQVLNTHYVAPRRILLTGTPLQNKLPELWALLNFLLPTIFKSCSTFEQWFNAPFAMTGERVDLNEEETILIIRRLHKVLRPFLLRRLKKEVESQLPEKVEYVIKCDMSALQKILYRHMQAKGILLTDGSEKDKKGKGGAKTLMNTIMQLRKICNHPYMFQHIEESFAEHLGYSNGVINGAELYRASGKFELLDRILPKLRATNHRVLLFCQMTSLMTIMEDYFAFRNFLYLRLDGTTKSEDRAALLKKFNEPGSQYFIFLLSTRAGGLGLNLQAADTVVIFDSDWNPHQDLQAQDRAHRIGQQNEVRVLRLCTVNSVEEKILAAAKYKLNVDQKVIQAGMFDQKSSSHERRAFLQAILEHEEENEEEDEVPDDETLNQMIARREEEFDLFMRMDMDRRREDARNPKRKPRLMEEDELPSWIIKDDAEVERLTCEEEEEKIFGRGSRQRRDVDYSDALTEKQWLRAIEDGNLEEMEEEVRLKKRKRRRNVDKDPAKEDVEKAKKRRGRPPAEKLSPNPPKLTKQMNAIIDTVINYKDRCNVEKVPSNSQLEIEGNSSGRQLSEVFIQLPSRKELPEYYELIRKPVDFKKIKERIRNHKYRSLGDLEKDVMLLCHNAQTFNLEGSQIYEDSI

% ATPase activity in HTS (SMARCA2 [1]) [%]	IC50 (SMARCA2 [2]) [µM]	IC50 (SMARCA2 [3]) [µM]	SMILES
97.3			O[C@@H]1CC[C@H](Nc2nc(NCc3ccc(Cl)c(Cl)c3)c3ccccc3n2)C1 [Compound 6]
26.9	25.3		COc1cc2nc(NC3CCCC3)nc(NCc3ccc(Cl)c(Cl)c3)c2cc1OC [Compound 7]
10.6	14.8	5	Clc1ccc(CNc2nc(NC3CCCC3)nc3ccccc23)cc1Cl [Compound 8]
